Data reported in patent US8372844B2, “Piperazinyl-propyl-pyrazole derivatives as dopamine D4 receptor antagonists, and pharmaceutical compositions containing the same” (Korea Research Institute of Chemical Technology, priority 2007, dated 2013).

Tests used:
5-HT2C receptor = target: T1, 5-HT2C receptor (Homo sapiens, UniProt P28335); experiment: Serotonin receptor binding experiment, 5-HT2C; parameters: species or system human or rat; conditions: [3H]Mesulergine 1 nM, 30 min at 37° C.; read-out: Receptor affinity (IC50, nM) 5-HT2C
T1 sequence (P28335 33-458): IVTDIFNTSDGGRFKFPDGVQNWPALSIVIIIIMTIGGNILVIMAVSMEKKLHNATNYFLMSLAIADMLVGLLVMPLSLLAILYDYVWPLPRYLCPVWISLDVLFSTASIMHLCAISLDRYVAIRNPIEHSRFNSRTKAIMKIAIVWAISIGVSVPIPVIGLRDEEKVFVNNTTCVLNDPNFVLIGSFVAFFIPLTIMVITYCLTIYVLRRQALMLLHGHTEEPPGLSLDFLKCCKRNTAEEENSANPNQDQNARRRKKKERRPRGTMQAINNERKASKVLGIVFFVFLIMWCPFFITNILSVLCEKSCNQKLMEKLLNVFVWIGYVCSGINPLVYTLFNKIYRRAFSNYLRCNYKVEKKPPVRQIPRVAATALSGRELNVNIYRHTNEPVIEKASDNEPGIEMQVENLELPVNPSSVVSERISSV
Experimental: (§1) The measurement of affinity for serotonin 5-HT receptor family was performed according to the experimental conditions as specified in Table 2 below using the method same as in Experimental Example 1 above.

5-HT1A receptor = target: T2, 5-HT1A receptor (Homo sapiens, UniProt P08908); experiment: Serotonin receptor binding experiment, 5-HT1A; parameters: species or system human or rat; conditions: [3H]8-OH-DPAT 0.5 nM, 60 min at 27° C.; read-out: Receptor affinity (IC50, nM) 5-HT1A
T2 sequence (P08908 1-422): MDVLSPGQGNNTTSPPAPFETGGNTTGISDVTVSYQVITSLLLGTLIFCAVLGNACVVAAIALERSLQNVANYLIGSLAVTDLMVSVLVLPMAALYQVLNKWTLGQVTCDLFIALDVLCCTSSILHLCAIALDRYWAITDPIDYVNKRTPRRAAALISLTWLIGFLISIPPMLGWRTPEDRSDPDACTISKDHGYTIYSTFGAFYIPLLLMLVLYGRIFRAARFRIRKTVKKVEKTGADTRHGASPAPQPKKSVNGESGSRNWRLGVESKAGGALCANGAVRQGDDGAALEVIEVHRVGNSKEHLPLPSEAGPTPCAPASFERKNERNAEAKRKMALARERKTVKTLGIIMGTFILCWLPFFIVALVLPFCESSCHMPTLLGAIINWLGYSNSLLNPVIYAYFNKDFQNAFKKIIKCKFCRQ
Experimental: as §1

SMILES | IC50 (5-HT2C receptor) | IC50 (5-HT1A receptor)
CC(C)c1cc(CCCN2CCN(c3ccccc3F)CC2)n(-c2ccccc2)n1 [Compound 177, 1-(2-fluorophenyl)-4-(3-(1-phenyl-3-isopropyl-1H-pyrazol-5-yl)propyl)piperazine] | 505 nM | 37 nM
CCCc1cc(CCCN2CCN(c3ccc(C)c(C)c3)CC2)n(-c2ccccc2)n1 [Compound 159, 1-(3,4-dimethylphenyl)-4-(3-(1-phenyl-3-propyl-1H-pyrazol-5-yl)propyl)piperazine] | 154 nM | 413 nM
CCCc1cc(CCCN2CCN(c3ccccc3F)CC2)n(-c2ccccc2)n1 [Compound 156, 1-(2-fluorophenyl)-4-(3-(1-phenyl-3-propyl-1H-pyrazol-5-yl)propyl)piperazine] | 1400 nM | 126 nM
CCCc1cc(CCCN2CCN(c3cccc(C)c3C)CC2)n(-c2ccccc2)n1 [Compound 160, 1-(2,3-dimethylphenyl)-4-(3-(1-phenyl-3-propyl-1H-pyrazol-5-yl)propyl)piperazine] | 141 nM | 50 nM
CCCc1cc(CCCN2CCN(c3ccccc3)CC2)n(-c2ccccc2)n1 [Compound 155, 1-phenyl-4-(3-(1-phenyl-3-propyl-1H-pyrazol-5-yl)propyl)piperazine] | 671 nM | 109 nM
